Reference: patent publication US10897906B2, “Fungicide for the treatment of fungal pathogens causing mycotoxins” (priority 2015, dated 2021)

Assays:
[1] = Surface tension of aqueous bicarbonate spray solution (Kruss DSA30); assay type: physicochemical; settings: aqueous solutions at typical in-use concentrations (2-5% active ingredient)
Protocol: (§1) In this application surface tension and contact angle were measured using a Kruss DSA30 system, […] was measured using a pendant drop technique with analysis carried out after application of the Laplace-Young equation, […] was measured following application of a droplet on to an artificial hydrophobic (Para-film) surface. The particle sizes of the crystals of the bicarbonate salt were determined by microscopy following the application of Motic Advanced Imaging Software.

[2] = Contact angle of aqueous bicarbonate spray solution (Kruss DSA30, hydrophobic Para-film surface); assay type: physicochemical; settings: aqueous solutions at typical in-use concentrations (2-5% active ingredient)
Protocol: as §1

O=C([O-])O.[K+] [potassium bicarbonate]
Surface tension compared with water [1]: virtually identical to that achieved with water alone
Contact angle with the plant tissues compared with water [2]: virtually identical to that achieved with water alone
